This note sets out measurements from patent US10092620B2, “Uses of cyclic peptides for treating and preventing atherosclerosis” (THE SCRIPPS RESEARCH INSTITUTE, priority 2013, dated 2018).

Non-standard residues stand in square brackets, D forms with d. dOrn = NCCC[C@@H](N)C(=O)O; Orn = NCCC[C@H](N)C(=O)O

The first assay deals with HDL in human plasma. Put plainly: pre-beta HDL ELISA assay: remodeling HDL in human plasma in vitro. Format: biochemical.
Conditions: not given
On the procedure:
First, various cyclic peptides, including the majority of compounds shown in FIG. 2, were assessed for activities for remodeling HDL in human plasma in vitro. Unlike western blot which was used to generate data shown in FIG. 2, here a pre-beta HDL ELISA assay was used to measure pre-beta HDL levels. Results from the assay are shown in Table 1, which lists the peptides in the order of their activities in remodeling HDL.
Take “c[fWwYtRhS] (cyclo([dF]W[dW]Y[dT]R[dH]S); SMILES C[C@H](O)[C@H]1NC(=O)[C@H](Cc2ccc(O)cc2)NC(=O)[C@@H](Cc2c[nH]c3ccccc23)NC(=O)[C@H](Cc2c[nH]c3ccccc23)NC(=O)[C@@H](Cc2ccccc2)NC(=O)[C@H](CO)NC(=O)[C@@H](Cc2c[nH]cn2)NC(=O)[C@H](CCCNC(=N)N)NC1=O) [SEQ ID NO:51]”: the “activity in generating pre-beta HDL (in words)” value is “excellent activities in promoting generation of pre-beta HDL”.

The same assay, now with this note: pre-beta HDL ELISA.
Turning to “17 (cyclo(Y[dW]D[dS]K[dH]); SMILES NCCCC[C@@H]1NC(=O)[C@@H](CO)NC(=O)[C@H](CC(=O)O)NC(=O)[C@@H](Cc2c[nH]c3ccccc23)NC(=O)[C@H](Cc2ccc(O)cc2)NC(=O)[C@@H](Cc2c[nH]cn2)NC1=O) [compound 17]”, the “Pre-beta HDL generated (normalized level)” value stood at 0.08.

On to “54 (cyclo([dW]L[dW]R[dE]Q[dE]R); SMILES CC(C)C[C@@H]1NC(=O)[C@@H](Cc2c[nH]c3ccccc23)NC(=O)[C@H](CCCNC(=N)N)NC(=O)[C@@H](CCC(=O)O)NC(=O)[C@H](CCC(N)=O)NC(=O)[C@@H](CCC(=O)O)NC(=O)[C@H](CCCNC(=N)N)NC(=O)[C@@H](Cc2c[nH]c3ccccc23)NC1=O) [compound 54]”, for which the “Pre-beta HDL generated (normalized level)” value came to 0.46.

With “8 (cyclo([dW]L[dW]K[dD]N[dD]K); SMILES CC(C)C[C@@H]1NC(=O)[C@@H](Cc2c[nH]c3ccccc23)NC(=O)[C@H](CCCCN)NC(=O)[C@@H](CC(=O)O)NC(=O)[C@H](CC(N)=O)NC(=O)[C@@H](CC(=O)O)NC(=O)[C@H](CCCCN)NC(=O)[C@@H](Cc2c[nH]c3ccccc23)NC1=O) [compound 8]”, the “Pre-beta HDL generated (normalized level)” value turned out to be 0.26.

Turning to “55 (cyclo(L[dW]L[dW]L[dS]E[dK]); SMILES CC(C)C[C@@H]1NC(=O)[C@@H](Cc2c[nH]c3ccccc23)NC(=O)[C@H](CC(C)C)NC(=O)[C@@H](Cc2c[nH]c3ccccc23)NC(=O)[C@H](CC(C)C)NC(=O)[C@@H](CCCCN)NC(=O)[C@H](CCC(=O)O)NC(=O)[C@@H](CO)NC1=O) [compound 55]”, the “Pre-beta HDL generated (normalized level)” value worked out at 0.35.

Regarding “16 (cyclo(Y[dW]E[dL]Y[dS]K[dQ]); also: 2nd residue stated as DL-residue) [compound 16]”, the “Pre-beta HDL generated (normalized level)” value is given as 0.09.

Turning to “30 (cyclo([dW]L[dW]S[dE]Q[dS]K)) [compound 30]”, the “Pre-beta HDL generated (normalized level)” value is recorded as 0.06.

Take “61 (cyclo([dY]A[dY]L[dK]H[dK]K); SMILES CC(C)C[C@@H]1NC(=O)[C@@H](Cc2ccc(O)cc2)NC(=O)[C@H](C)NC(=O)[C@@H](Cc2ccc(O)cc2)NC(=O)[C@H](CCCCN)NC(=O)[C@@H](CCCCN)NC(=O)[C@H](Cc2c[nH]cn2)NC(=O)[C@@H](CCCCN)NC1=O) [compound 61]”: the “Pre-beta HDL generated (normalized level)” value is 0.19.

Consider “70 (cyclo(L[dL]W[dL]K[dK]K[dK]); SMILES CC(C)C[C@@H]1NC(=O)[C@@H](CCCCN)NC(=O)[C@H](CCCCN)NC(=O)[C@@H](CCCCN)NC(=O)[C@H](CCCCN)NC(=O)[C@@H](CC(C)C)NC(=O)[C@H](Cc2c[nH]c3ccccc23)NC(=O)[C@@H](CC(C)C)NC1=O) [compound 70]”, for which the “Pre-beta HDL generated (normalized level)” value came out at 0.06.

With “71 (cyclo(WGWGW[dK]S[dOrn]); ring closure inferred) [compound 71]”, the “Pre-beta HDL generated (normalized level)” value is 0.06.

Turning to “23 (cyclo([dW]L[dW]R[dE]N[dE][Orn]); SMILES CC(C)C[C@@H]1NC(=O)[C@@H](Cc2c[nH]c3ccccc23)NC(=O)[C@H](CCCN)NC(=O)[C@@H](CCC(=O)O)NC(=O)[C@H](CC(N)=O)NC(=O)[C@@H](CCC(=O)O)NC(=O)[C@H](CCCNC(=N)N)NC(=O)[C@@H](Cc2c[nH]c3ccccc23)NC1=O) [compound 23]”, the “Pre-beta HDL generated (normalized level)” value turned out to be 0.16.

Turning to “34 (cyclo([dY]D[dY]W[dY]H[dA]K); not fully specified (residues 2, 4, 6, 8)) [compound 34]”, the “Pre-beta HDL generated (normalized level)” value stood at 0.08.

Turning to “64 (cyclo([dW]F[dW]Y[dR]S[dS]H); SMILES N=C(N)NCCC[C@H]1NC(=O)[C@H](Cc2ccc(O)cc2)NC(=O)[C@@H](Cc2c[nH]c3ccccc23)NC(=O)[C@H](Cc2ccccc2)NC(=O)[C@@H](Cc2c[nH]c3ccccc23)NC(=O)[C@H](Cc2c[nH]cn2)NC(=O)[C@@H](CO)NC(=O)[C@H](CO)NC1=O) [compound 64]”, the “Pre-beta HDL generated (normalized level)” value is listed as 0.16.

On to “79 (cyclo([dW]L[dK]S[dK]S[dK]S); SMILES CC(C)C[C@@H]1NC(=O)[C@@H](Cc2c[nH]c3ccccc23)NC(=O)[C@H](CO)NC(=O)[C@@H](CCCCN)NC(=O)[C@H](CO)NC(=O)[C@@H](CCCCN)NC(=O)[C@H](CO)NC(=O)[C@@H](CCCCN)NC1=O) [compound 79]”, for which the “Pre-beta HDL generated (normalized level)” value is given as 0.01.

For the substance “62 (cyclo([dY]Y[dV]Y[dH]H); SMILES CC(C)[C@H]1NC(=O)[C@H](Cc2ccc(O)cc2)NC(=O)[C@@H](Cc2ccc(O)cc2)NC(=O)[C@H](Cc2c[nH]cn2)NC(=O)[C@@H](Cc2c[nH]cn2)NC(=O)[C@H](Cc2ccc(O)cc2)NC1=O) [compound 62]”, the “Pre-beta HDL generated (normalized level)” value was 0.17.

Take “15 (cyclo(Y[dL]W[dY]K[dH]A[dE]); SMILES CC(C)C[C@H]1NC(=O)[C@H](Cc2ccc(O)cc2)NC(=O)[C@@H](CCC(=O)O)NC(=O)[C@H](C)NC(=O)[C@@H](Cc2c[nH]cn2)NC(=O)[C@H](CCCCN)NC(=O)[C@@H](Cc2ccc(O)cc2)NC(=O)[C@H](Cc2c[nH]c3ccccc23)NC1=O) [compound 15]”: the “Pre-beta HDL generated (normalized level)” value amounted to 0.51.

Regarding “50 (cyclo(WIW[dR]E[dQ]E[dR]); SMILES CC[C@H](C)[C@@H]1NC(=O)[C@H](Cc2c[nH]c3ccccc23)NC(=O)[C@@H](CCCNC(=N)N)NC(=O)[C@H](CCC(=O)O)NC(=O)[C@@H](CCC(N)=O)NC(=O)[C@H](CCC(=O)O)NC(=O)[C@@H](CCCNC(=N)N)NC(=O)[C@H](Cc2c[nH]c3ccccc23)NC1=O) [compound 50]”, the “Pre-beta HDL generated (normalized level)” value is listed as 0.54.

As for “c[wLwKeNeK] (cyclo([dW]L[dW]K[dE]N[dE]K); SMILES CC(C)C[C@@H]1NC(=O)[C@@H](Cc2c[nH]c3ccccc23)NC(=O)[C@H](CCCCN)NC(=O)[C@@H](CCC(=O)O)NC(=O)[C@H](CC(N)=O)NC(=O)[C@@H](CCC(=O)O)NC(=O)[C@H](CCCCN)NC(=O)[C@@H](Cc2c[nH]c3ccccc23)NC1=O) [SEQ ID NO:11]”, the “Pre-beta HDL generated (normalized level)” value is 0.24.

With “76 (cyclo([dL]W[dL]K[dK]K[dH]R); SMILES CC(C)C[C@H]1NC(=O)[C@H](CCCNC(=N)N)NC(=O)[C@@H](Cc2c[nH]cn2)NC(=O)[C@H](CCCCN)NC(=O)[C@@H](CCCCN)NC(=O)[C@H](CCCCN)NC(=O)[C@@H](CC(C)C)NC(=O)[C@H](Cc2c[nH]c3ccccc23)NC1=O) [compound 76]”, the “Pre-beta HDL generated (normalized level)” value was 0.03.

For the substance “73 (cyclo(L[dW]L[dH]K[dK]E[dH]); SMILES CC(C)C[C@@H]1NC(=O)[C@@H](Cc2c[nH]c3ccccc23)NC(=O)[C@H](CC(C)C)NC(=O)[C@@H](Cc2c[nH]cn2)NC(=O)[C@H](CCC(=O)O)NC(=O)[C@@H](CCCCN)NC(=O)[C@H](CCCCN)NC(=O)[C@@H](Cc2c[nH]cn2)NC1=O) [compound 73]”, the “Pre-beta HDL generated (normalized level)” value stood at 0.04.
